The values that follow come from PMC10915168, “DJ-1 protects proteins from acylation by catalyzing the hydrolysis of highly reactive cyclic 3-phosphoglyceric anhydride” (Nature Communications, 2024).

In this assay the target is T1, DJ-1 (Homo sapiens, UniProt Q99497, C106S).
T1 construct: gene PARK7; full-length, N-terminal His-tag removed by TEV protease; Ni-NTA purified recombinant; ~20 kDa
T1 sequence (Q99497 1-189 C106S): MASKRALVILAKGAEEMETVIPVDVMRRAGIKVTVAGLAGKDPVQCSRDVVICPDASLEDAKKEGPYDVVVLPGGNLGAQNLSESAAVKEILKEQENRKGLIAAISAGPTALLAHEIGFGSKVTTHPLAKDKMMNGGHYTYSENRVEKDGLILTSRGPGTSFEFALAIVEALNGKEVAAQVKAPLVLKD
In words: end-point NAC assay of remaining cPGA; 1H-NMR. The settings on record: 500 µM cPGA, 2 min, 50 mM sodium phosphate pH 7.0, 25 °C; catalytic cysteine mutant. The format is biochemical.

Consider `O=C1OP(=O)(O)OC[C@H]1O` [cPGA], for which the “end-point NAC assay of remaining cPGA; 1H-NMR” value is recorded as “Mutation of the catalytic cysteine (C106S) in DJ-1 completely abolished this activity”.
